# From patent US6602870B2, “Oral dosage form for administration of the combination of tegafur, uracil, folinic acid, and oxaliplatin and method of using the same” (Bristol-Myers Squibb Company, priority 2000, dated 2003)
# Several values for one entry are separate records, joined by “and”; a condition that tells them apart may be missing. Equal values may be shown once.
# Tests used:
# [1] = tested on: human HT29 colorectal tumor cell xenografts; test: Growth inhibition study in nude mice transplanted with human HT29 colorectal tumor cell xenografts; assay type: in vivo
# Method: Growth inhibition studies were performed using nude mice transplanted with human HT29 colorectal tumor cell xenografts and 1) not treated (control group), or treated 2) with oral UFT (20 mg/kg/day) and calcium folinate (4 mg/kg/day) for 28 days; 3) intraperitonealy with oxaliplatin (10 mg/kg at day 1), or 4) with a combination of oxaliplatin with UFT and calcium folinate. Tumor measurements were performed twice a week, and animals were sacrificed at day 28. The tumors were excised and weighed. Two separate experiments were performed, for a total number of 25 animals in each group.
# Human colorectal cancer HT29 cells, obtained from Dr. J. Fogh (Sloan Kettering Institute for Cancer Research, N.Y.), were cultured in DMEM (Dulbeccos modified Eagle's medium, Eurobio, Paris, France), supplemented with 10% heat-decomplemented fetal bovine serum (Boehringer, Manheim, Germany), 100 U/ml penicillin, 100 μg/ml streptomycin and […] glutamine. Cells were grown at 37° C. in a humidified atmosphere containing 5% CO2. The medium was renewed every 2 days, and the cells were passaged twice a week by trypsin/EDTA to maintain the cells in exponential growth.
# Female BALB/c nude (nu+/nu+) aged 6 weeks were maintained in pathogen free state. Human HT29 colorectal xenograft (1×10^6 cells) was transplanted sub-cutaneously into the hind limb of each animal. Treatment was initiated 14 days later when the tumor became easily palpable and measurable (mean size of tumor surface=33 mm^2).
# Oxaliplatin was administered intraperitoneally at a dose of 10 mg/kg day 1. […]
# Two axes (mm) of tumor (the longest axis and the axis perpendicular to the longest axis) were measured with a caliper. Tumor measurements and body weights were recorded twice a week. […] Toxicity was evaluated in terms of body weight ratio (Wn/Wo) and mortality; Wn is the body weight measured n days after the initial administration, while Wo is the body weight at the start of administration. […] Results are expressed as mean weight (grams)±standard deviation. […]
# [2] = Toxicity (body weight ratio, mortality) in HT29 xenograft nude mice; assay type: in vivo; details: day 28 before sacrifice; 25 animals per group
# Method: Tumor measurements and body weights were recorded twice a week. […] For each experiment, the same observer made all measurements to minimize variations. Toxicity was evaluated in terms of body weight ratio (Wn/Wo) and mortality; Wn is the body weight measured n days after the initial administration, while Wo is the body weight at the start of administration. […] Two consecutive experiments gave similar data, and results represent the average of all data for a total of 25 animals per group. The means of each of the four groups were compared using the one-way analysis of variance. The Barlett's test was used for homogeneity of variances and the Tukey-Kramer multiple comparison test for inter-group comparison. Data analysis was performed using an IBM PC. Statistical analysis and graphs were performed using Instat and Prism software (GraphPad, San Diego, Calif.).
# Body weight was evaluated in terms of the ratio of body weight measured n days after treatment (Wn) as compared to the body weight at the start of treatment (Wo). All animals (25 per group) were weighed twice a week.
smiles,measurement,setting,value
"O=C1[O][Pt]2([NH][C@@H]3CCCC[C@H]3[NH]2)[O]C1=O [oxaliplatin, [(1R, 2R)-1,2-cyclohexanediamine-N,N′][oxalato(2-)-O, O′]platinum]",Decrease of tumor size (tumor growth inhibition) as compared to control,"[1]; day 28, FIG. 1",24%
same,Tumor weight decrease as compared to control,"[1]; day 28, same doses",29.9% and 30%
same,Mean tumor weight,"[1]; tumors excised 28 days after treatment initiation, 25 animals per group, UFT 20 mg/kg/day + calcium folinate 4 mg/kg/day oral day 1-28, oxaliplatin 10 mg/kg i.p. day 1",2.03 ± 0.14 g
same,Body Weight Ratio (Wn/Wo),[2],1.05 ± 0.09
